# Measurements as given in patent US20240197700A1, “Methods and Compositions for Treating Lysosomal Storage Disorders” (Sanford Health, priority 2021, published 2024).
# Entries after “also recorded” stand apart in the source; their conditions may differ.
# System: Cln3^Δex7/8 mice
# Assay: Microglial activation (CD68) in brain of Cln3^Δex7/8 mice
# Type: in vivo, mouse
# Details: for microglial activation (CD68): VPM/VPL of the thalamus and somatosensory cortex
# Method: FIG. 22(A-B). Short-term chronic treatment with semaglutide impacts glial activation in Cln3^Δex7/8 mice. Beginning at wean, wild type and Cln3^Δex7/8 mice were treated with vehicle or semaglutide 2.571 μg/mouse, 25.71 μg/mouse) through subcutaneous injections three times a week until sacrifice at 16 weeks. Upon sacrifice, a hemisphere of the brain was sectioned at 50 microns on a vibratome; DAB staining immunohistochemistry was then performed using anti-GFAP (Dako, Z0334; 1:5000), anti-CD68 (AbD Serotec, MCA1957; 1:2000), anti-rabbit biotinylated (Vector Labs, BA-1000 1:1000), and anti-rat (Vector Labs, BA-9400 1:1000). Sections were imaged and analyzed using an Aperio Digital Pathology Slide Scanner (AT2) and associated software. Images were extracted from S1BF of the somatosensory cortex, the CA3 of the hippocampus, and the VPM/VPL of the thalamus, key brain regions for Batten disease pathology. Percent area of immunoreactivity were quantified using a threshold analysis in ImageJ™. Statistical analyses were performed using GraphPad Prism™ (v8.4.3; San Diego, CA). […] Increasing concentrations of semaglutide and corresponding genotypes are shown along the x-axis. Nested one-way ANOVA. Mean±S.E.M. Sidak's multiple comparisons test. Compared to the wild type vehicle treated group #p<0.05, ##p<0.01, ###p<0.001, ####p<0.0001. Compared to mutant vehicle treated group *p<0.05, **p<0.01, ***p<0.001, ****p<0.0001.
# Specific experimental details are included in figure legends. In general, after collection and preparation, MEFs and PNCs were dosed with vehicle or AF38469 (40 nM, 400 nM. or 4 μM) on DIV3 and DIV5. On DIV7, cells were treated with the following dyes: Hoechst 33342 (1:1000 dilution), LysoTrackerT™ Red DND-99 (1:10,000 dilution), fixed, and imaged. Mice were given vehicle or AF38469 (78.125 μg/ml, 3.125 μg/ml, 0.3125 μg/ml or 0.03125 μg/ml equating approximately to 250 μg/mouse/day, 10 μg/mouse/day, 1 μg/mouse/day, and […], respectively, given a mouse's daily water intake of approximately 3.2 ml per day) in drinking water beginning at wean. Body weight was measured bi-weekly, and a force actimeter test was performed on Cln2^R207X mice at 10 weeks of age. Body weight was measured every month for Cln3^Δex7/8 mice. At 11 and 16 weeks of age, respectively, Cln2^R207X and Cln3^Δex7/8 mice along with age matched wild type control mice were CO2 euthanized and intracardially perfused with PBS. Brains were collected and placed on a 1 mm sagittal brain block. Brains were sliced at the midline and 3 mm right of the midline. One hemisphere was fixed in 4% PFA and sectioned at 50 microns on a vibratome. Immunohistochemistry was performed on free-floating sections. For mitochondrial ATP synthase subunit C (SubC), glial fibrillary acidic protein (GFAP), and cluster of differentiation 68 (CD68) immunolabeling, primary antibodies included anti-SubC (Abcam, ab181243; 1:1000), anti-GFAP (Dako, Z0334; 1:5000), anti-CD68 (AbD Serotec, MCA1957; 1:2000), and secondary antibodies included anti-rabbit biotinylated (Vector Labs, BA-1000 1:1000) and anti-rat (Vector Labs, BA-9400 1:1000). Coverslips were mounted on slides using antifade-mounting media and were stored in the dark before imaging. Sections were imaged and analyzed using an Aperio Digital Pathology Slide Scanner (AT2) and associated software. Images were extracted from S1BF of the somatosensory cortex and the VPM/VPL of the thalamus, with multiple images taken of multiple tissues from each animal.
# Short-term chronic treatment with AF38469 impacts glial activation in Cln3^Δex7/8 mice. Beginning at wean, wild type and Cln3^Δex7/8 mice were treated with vehicle (0.2408% DMSO) or AF38469 (0.03125 μg/ml, 0.3125 μg/ml, 3.125 μg/ml, 78.125 μg/ml) continuously through the drinking water continuing until sacrifice at 16 weeks. […]
molecule,measurement,setting,value
"Cc1cccc(NC(=O)c2ccc(C(F)(F)F)cc2C(=O)O)n1 [AF38469, 2-((6-methylpyridin-2-yl)carbamoyl)-5-(trifluoromethyl)benzoic acid]",microglial activation (CD68),"AF38469 higher doses 3.125 μg/ml, 78.125 μg/ml",increased or had no impact; also recorded: had no impact
same,microglial activation (CD68),"AF38469 lower doses 0.03125 μg/ml, 0.3125 μg/ml",significantly and potently decreased
semaglutide,accumulation of microgliosis (CD68),"semaglutide 2.571 μg/mouse, 25.71 μg/mouse s.c., S1BF, CA3, VPM/VPL, vs vehicle Cln3^Δex7/8",had no significant effect
same,CD68 immunoreactivity,"semaglutide lower dose 2.571 μg/mouse s.c., S1BF, CA3, VPM/VPL, relative to wild type",reduced CD68 immunoreactivity to levels indistinguishable from wild type; also recorded: restored CD68 immunoreactivity to wild type levels
"CC[C@H](C)[C@H](N)C(=O)NCCN1CCOCC1 [LM11A-31, N-[2-(morpholin-4-yl)ethyl]-L-isoleucinamide]",microglial activation (CD68),LM11A-31 0.6 mg/mL,had no impact
same,levels of CD68,"LM11A-31 0.6 mg/mL, thalamus",trends towards decreased levels
